Laboratory results: US20100227836A1, “PARENTERAL ADMINISTRATION OF A GLUCOSAMINE” (THE JOHNS HOPKINS UNIVERSITY, priority 2008, published 2010)

What was measured:
[1] = tested on: transforming growth factor β1 (TGF-β1) expression; details: cited from earlier work
[2] = following nasogastric intake of 20 mg/kg/day of GlcN; cited from earlier work
[3] = tested on: cell growth, matrix production and gene expression; details: narrow window; cited from earlier work
[4] = tested on: surgically manipulated rat knees (osteoarthritis); assay: Experimental model of osteoarthritis in rodents, intraarticular injection, cartilage histology (safranin-O); assay type: in vivo; details: 2 mM, transcutaneous intraarticular injections weekly for three weeks
Procedure: For example, in an experimental model of osteoarthritis in rodents, rat knees were surgically manipulated to obtain histological manifestations of osteoarthritis (Janusz et al., Osteoarth, Cart. 10:785-791, 2002). Four weeks […], injured joints were untreated, or treated with a PBS control, a 2 mM glucosamine solution or a 1:1 mixture of 2 mM glucosamine solution and CSMA-aldehyde (chondroitin sulfate methacrylate) (Wang et al., Nat. Mater. 6:385-392, 2007). Treatments were transcutaneous, intraarticular injections weekly for three weeks.

Structure (SMILES): N[C@H]1C(O)O[C@H](CO)[C@@H](O)[C@@H]1O (stereo partly drawn) [glucosamine, Glucosamine]
- TGF-β1 expression [1]: upregulated
- level in serum [2]: ~6 µM
- level in synovial fluid [2]: ~0.5 µM
- concentration window with beneficial effect on cell growth, matrix production and gene expression [3]: no more than 2 mM
- cartilage development and organization across treatment groups [4]: best developed and well organized
- cartilage development in treated joints (histology, safranin-O) ([4]; four weeks after surgery, compared to PBS control and untreated control joints): Florid cartilage development
